Source: patent publication US10745384B2, “Indazole derivatives as αv integrin antagonists” (BRISTOL-MYERS SQUIBB COMPANY, priority 2016, dated 2020)
Counter-ions that a name gives are not always drawn.

How the values were obtained:
[1] = molecular target: human αVβ1 (Homo sapiens, UniProt P05556+P06756); test: human αVβ1 HTRF binding assay
Experimental: (§1) All binding assays used the HTRF (homogeneous time resolved fluorescence) technology from Cisbio International, therefore all assays are described as HTRF binding assays. The assay results for the Examples are listed above together with the characterization data. The HTRF binding assays are established for the following integrins: human αVβ6, human αVβ1, human αVβ3, human αVβ5, and human αVβ8. All assays used the following assay buffer: 20 mM Tris, pH 7.4, 1 mM MgCl2, 1 mM MnCl2, 0.01% Tween 20, and 0.01% BSA. Alternatively, a SPA-based assay was used for evaluation of receptor binding.
(§2) The following describes the components and a representative procedure for the human αVβ6 HTRF binding assay: Recombinant human αVβ6 Integrin (R & D systems, 3817-AV) was biotinylated. Biotinylated human αVβ6 Integrin was added to assay vessel at a final concentration of 1.25 nM. FITC-conjugated fibronectin (Cytoskeleton, FNR02) was then added at the final concentration of 5 nM. The mixture was centrifuged at 600 rpm for three minutes using Thermo Fisher Heraeus Multifuge X3 centrifuge and then incubated at room temperature for an hour. Streptavidin Terbium (Cisbio international 610STLB) was then added at the final concentration of 0.625 nM. The resulting mixture was centrifuged at 600 rpm for three minutes using Thermo Fisher Heraeus Multifuge X3 centrifuge and then incubated at room temperature overnight in dark before reading HTRF signals.
The SPA-based assay was carried out according to the protocol and procedures similar to the ones described in the following reference with appropriate modifications to agents and ligands which are readily understood by one skilled in the art: Pachter J A, Zhang R, Mayer-Ezell R., “Scintillation proximity assay to measure binding of soluble fibronectin to antibody-captured αVβ1 integrin” Anal Biochem. 1995 Sep. 1; 230(1):101-7.

[2] = molecular target: human αVβ5 (Homo sapiens, UniProt P06756+P18084); test: human αVβ5 HTRF binding assay
human αVβ5, sequence (P06756 31-992 limits assumed): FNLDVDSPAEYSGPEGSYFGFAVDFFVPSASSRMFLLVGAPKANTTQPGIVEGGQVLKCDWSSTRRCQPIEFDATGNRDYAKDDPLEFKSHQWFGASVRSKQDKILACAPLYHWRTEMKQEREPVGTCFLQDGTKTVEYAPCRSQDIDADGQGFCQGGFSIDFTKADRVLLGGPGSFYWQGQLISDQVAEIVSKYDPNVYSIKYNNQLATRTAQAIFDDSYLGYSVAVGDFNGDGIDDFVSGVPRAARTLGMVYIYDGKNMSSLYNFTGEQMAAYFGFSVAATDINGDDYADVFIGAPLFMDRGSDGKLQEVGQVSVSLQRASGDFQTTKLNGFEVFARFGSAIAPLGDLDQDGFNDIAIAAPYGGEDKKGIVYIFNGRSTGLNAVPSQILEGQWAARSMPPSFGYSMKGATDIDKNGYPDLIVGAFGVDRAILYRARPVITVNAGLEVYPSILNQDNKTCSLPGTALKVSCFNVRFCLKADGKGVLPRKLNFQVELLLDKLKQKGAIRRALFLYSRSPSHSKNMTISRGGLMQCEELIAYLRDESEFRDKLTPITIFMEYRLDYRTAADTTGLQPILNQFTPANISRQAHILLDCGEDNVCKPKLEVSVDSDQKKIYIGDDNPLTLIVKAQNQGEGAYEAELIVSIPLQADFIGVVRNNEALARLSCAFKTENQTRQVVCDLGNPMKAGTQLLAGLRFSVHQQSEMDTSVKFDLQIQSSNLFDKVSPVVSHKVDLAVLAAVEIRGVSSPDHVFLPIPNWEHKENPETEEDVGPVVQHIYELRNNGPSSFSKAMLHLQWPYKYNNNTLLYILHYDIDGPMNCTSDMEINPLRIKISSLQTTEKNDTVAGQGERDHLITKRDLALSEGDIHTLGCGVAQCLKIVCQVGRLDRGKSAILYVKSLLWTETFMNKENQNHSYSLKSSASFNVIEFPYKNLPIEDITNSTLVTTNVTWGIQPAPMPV
human αVβ5, sequence (P18084 24-719 limits assumed): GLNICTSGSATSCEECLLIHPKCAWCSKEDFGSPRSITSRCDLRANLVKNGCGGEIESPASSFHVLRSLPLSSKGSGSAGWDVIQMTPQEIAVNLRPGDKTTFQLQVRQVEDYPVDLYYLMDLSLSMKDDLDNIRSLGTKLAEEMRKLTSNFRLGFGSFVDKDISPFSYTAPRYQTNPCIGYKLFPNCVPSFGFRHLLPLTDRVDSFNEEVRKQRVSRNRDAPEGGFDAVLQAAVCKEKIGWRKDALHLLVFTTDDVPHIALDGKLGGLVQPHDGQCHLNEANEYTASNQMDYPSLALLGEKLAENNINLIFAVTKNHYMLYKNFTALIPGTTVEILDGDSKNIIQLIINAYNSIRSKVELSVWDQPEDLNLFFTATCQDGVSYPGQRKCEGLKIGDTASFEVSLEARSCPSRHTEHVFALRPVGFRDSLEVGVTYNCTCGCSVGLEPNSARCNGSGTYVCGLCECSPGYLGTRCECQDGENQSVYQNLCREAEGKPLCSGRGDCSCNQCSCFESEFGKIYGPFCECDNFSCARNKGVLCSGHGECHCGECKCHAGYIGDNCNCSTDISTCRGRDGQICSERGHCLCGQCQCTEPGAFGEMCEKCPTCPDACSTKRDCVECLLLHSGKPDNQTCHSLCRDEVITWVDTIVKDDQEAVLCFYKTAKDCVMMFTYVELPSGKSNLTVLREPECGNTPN
Experimental: as §1
as §2, with “signals. […]” for “signals.”

[3] = molecular target: T1, human αVβ6 (Homo sapiens, UniProt P06756+P18564); test: human αVβ6 HTRF binding assay; details: recombinant human αVβ6 integrin, FITC-conjugated fibronectin
T1 construct: purchased R & D systems 3817-AV
T1 sequence (P06756 31-992 limits assumed): as the sequence (P06756 31-992 limits assumed) above
T1 sequence (P18564 22-707 limits assumed): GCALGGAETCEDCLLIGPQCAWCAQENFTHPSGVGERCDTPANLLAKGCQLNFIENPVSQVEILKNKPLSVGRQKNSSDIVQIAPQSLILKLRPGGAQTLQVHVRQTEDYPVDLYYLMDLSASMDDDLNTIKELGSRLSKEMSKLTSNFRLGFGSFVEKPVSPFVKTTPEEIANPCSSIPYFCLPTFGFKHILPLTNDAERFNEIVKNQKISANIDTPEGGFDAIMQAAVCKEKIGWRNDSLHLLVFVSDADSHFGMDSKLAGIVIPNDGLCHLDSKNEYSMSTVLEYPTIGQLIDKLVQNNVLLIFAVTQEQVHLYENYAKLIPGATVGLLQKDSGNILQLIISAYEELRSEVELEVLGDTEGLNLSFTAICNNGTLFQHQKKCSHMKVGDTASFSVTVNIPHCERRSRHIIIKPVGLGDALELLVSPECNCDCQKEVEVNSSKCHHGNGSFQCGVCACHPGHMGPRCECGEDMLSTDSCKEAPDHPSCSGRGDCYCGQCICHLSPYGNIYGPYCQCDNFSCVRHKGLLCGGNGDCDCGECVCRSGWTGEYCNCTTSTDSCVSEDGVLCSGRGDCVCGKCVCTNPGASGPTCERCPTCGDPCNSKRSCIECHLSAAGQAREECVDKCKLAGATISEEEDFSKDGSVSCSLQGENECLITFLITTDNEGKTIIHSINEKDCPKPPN
In short: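 HTRF binding in 20 mM Tris pH 7.4 with 1 mM MgCl2, 1 mM MnCl2, 0.01% Tween 20 and 0.01% BSA. For αVβ6, biotinylated integrin (1.25 nM) and FITC-fibronectin (5 nM) were incubated 1 h at RT, then streptavidin-terbium (0.625 nM) was added overnight in the dark. An SPA-based fibronectin binding format was an alternative.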

[4] = molecular target: human αVβ8 (Homo sapiens, UniProt P06756+P26012); test: human αVβ8 HTRF binding assay
human αVβ8, sequence (P06756 31-992 limits assumed): as the sequence (P06756 31-992 limits assumed) above
human αVβ8, sequence (P26012 43-684 limits assumed): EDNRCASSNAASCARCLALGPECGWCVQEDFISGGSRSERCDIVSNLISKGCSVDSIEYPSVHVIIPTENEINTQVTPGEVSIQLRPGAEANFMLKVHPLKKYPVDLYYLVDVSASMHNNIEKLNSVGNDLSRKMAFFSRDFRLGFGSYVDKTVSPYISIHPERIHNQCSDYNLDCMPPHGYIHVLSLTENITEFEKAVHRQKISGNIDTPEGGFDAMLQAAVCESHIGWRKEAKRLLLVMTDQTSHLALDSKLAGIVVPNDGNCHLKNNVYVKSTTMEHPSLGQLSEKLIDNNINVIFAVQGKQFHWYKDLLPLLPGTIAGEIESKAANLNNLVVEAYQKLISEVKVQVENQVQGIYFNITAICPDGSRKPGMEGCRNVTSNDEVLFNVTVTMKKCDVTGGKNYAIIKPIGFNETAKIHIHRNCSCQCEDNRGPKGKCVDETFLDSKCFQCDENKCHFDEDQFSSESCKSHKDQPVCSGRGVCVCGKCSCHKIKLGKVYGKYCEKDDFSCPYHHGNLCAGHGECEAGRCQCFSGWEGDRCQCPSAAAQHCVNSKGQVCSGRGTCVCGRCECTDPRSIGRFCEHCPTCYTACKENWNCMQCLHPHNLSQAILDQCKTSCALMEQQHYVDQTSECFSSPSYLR
Experimental: as §1
as §2, with “signals. […]” for “signals.”

[5] = molecular target: human αVβ3 (Homo sapiens, UniProt P05106+P06756); test: human αVβ3 HTRF binding assay
human αVβ3, sequence (P06756 31-992 limits assumed): as the sequence (P06756 31-992 limits assumed) above
human αVβ3, sequence (P05106 27-718 limits assumed): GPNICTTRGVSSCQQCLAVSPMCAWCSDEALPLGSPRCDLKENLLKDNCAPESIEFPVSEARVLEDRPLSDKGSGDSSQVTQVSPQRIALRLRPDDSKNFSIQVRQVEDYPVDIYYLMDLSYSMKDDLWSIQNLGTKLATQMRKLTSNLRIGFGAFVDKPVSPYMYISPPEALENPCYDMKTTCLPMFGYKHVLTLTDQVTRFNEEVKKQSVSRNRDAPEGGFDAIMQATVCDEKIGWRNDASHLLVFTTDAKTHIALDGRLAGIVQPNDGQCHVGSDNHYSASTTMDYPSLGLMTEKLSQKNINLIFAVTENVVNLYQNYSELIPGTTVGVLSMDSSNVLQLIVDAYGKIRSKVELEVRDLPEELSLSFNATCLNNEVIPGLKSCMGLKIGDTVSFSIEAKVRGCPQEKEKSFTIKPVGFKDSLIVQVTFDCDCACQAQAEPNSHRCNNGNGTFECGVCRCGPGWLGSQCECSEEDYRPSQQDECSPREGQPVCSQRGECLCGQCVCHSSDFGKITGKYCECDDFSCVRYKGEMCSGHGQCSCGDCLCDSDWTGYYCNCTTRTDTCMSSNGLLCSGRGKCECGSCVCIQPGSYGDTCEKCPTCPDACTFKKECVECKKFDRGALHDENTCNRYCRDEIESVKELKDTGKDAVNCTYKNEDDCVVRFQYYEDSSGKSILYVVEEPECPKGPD
Experimental: as §1
as §2, with “signals. […]” for “signals.”

human αVβ1, sequence (P06756 31-992 limits assumed): as the sequence (P06756 31-992 limits assumed) above
human αVβ1, sequence (P05556 21-728 limits assumed): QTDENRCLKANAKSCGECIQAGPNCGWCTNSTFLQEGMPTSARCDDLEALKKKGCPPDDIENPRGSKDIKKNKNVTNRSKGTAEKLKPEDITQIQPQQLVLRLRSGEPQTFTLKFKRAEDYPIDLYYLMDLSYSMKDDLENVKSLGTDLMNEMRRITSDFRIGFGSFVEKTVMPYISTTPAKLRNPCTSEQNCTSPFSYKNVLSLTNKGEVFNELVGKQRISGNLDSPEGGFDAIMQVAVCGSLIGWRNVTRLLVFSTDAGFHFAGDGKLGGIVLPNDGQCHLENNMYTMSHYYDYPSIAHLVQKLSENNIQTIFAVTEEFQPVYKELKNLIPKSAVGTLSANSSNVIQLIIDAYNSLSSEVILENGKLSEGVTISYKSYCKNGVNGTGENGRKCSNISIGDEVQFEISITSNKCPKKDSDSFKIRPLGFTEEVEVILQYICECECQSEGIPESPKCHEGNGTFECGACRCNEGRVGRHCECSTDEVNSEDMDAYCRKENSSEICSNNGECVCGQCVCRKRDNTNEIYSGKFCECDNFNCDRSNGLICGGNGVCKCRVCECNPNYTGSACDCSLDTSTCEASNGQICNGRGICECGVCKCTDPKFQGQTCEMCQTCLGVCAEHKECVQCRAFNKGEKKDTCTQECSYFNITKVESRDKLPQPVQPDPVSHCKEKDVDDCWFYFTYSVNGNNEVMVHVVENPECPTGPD

Compound	IC50 [1] [nM]	IC50 [2] [nM]	IC50 [3] [nM]	IC50 [4] [nM]	IC50 [5] [nM]
O=C(O)CC(c1cnc2ccccc2n1)n1ncc2cc(OCCc3ccc4c(n3)NCCC4)ccc21 (racemic) [Example 15, (±)-3-(Quinoxalin-2-yl)-3-(5-(2-(5,6,7,8-tetrahydro-1,8-naphthyridin-2-yl)ethoxy)-1H-indazol-1-yl)propanoic acid]	270	0.31	6	1500	2.7
O=C(O)C[C@@H](c1cnc2ccccc2n1)n1ncc2cc(OCCc3ccc4c(n3)NCCC4)ccc21 [Example 17, (S)-3-(quinoxalin-2-yl)-3-(5-(2-(5,6,7,8-tetrahydro-1,8-naphthyridin-2-yl)ethoxy)-1H-indazol-1-yl)propanoic acid]	190	0.25	4.2	1900	2.1
COc1ccc(C(CC(=O)O)n2ncc3cc(OCCc4ccc5c(n4)NCCC5)ccc32)cn1 (centres unmarked) [Example 34, 3-(6-Methoxypyridin-3-yl)-3-(5-(2-(5,6,7,8-tetrahydro-1,8-naphthyridin-2-yl)ethoxy)-1H-indazol-1-yl)propanoic acid, TFA]	95	0.38	12	1300	2.5
COc1ccc([C@H](CC(=O)O)n2ncc3cc(OCCc4ccc5c(n4)NCCC5)ccc32)cn1 [Example 41, (S)-3-(6-Methoxypyridin-3-yl)-3-(5-(2-(5,6,7,8-tetrahydro-1,8-naphthyridin-2-yl)ethoxy)-1H-indazol-1-yl)propanoic acid]	83	0.22	6.2	510	2.3
O=C(O)CC(c1cnc2ccccc2c1)n1ncc2cc(OCCc3ccc4c(n3)NCCC4)ccc21 (centres unmarked) [Example 48, 3-(Quinolin-3-yl)-3-(5-(2-(5,6,7,8-tetrahydro-1,8-naphthyridin-2-yl)ethoxy)-1H-indazol-1-yl)propanoic acid, TFA]	270	0.54	5.5	4400	3.8
COc1ccc([C@H](CC(=O)O)n2cc3ccc(CCC4CCc5cccnc5N4)cc3n2)cn1 (stereo partly drawn) [Example 72, (3S)-3-(6-Methoxypyridin-3-yl)-3-(6-(2-(1,2,3,4-tetrahydro-1,8-naphthyridin-2-yl)ethyl)-2H-indazol-2-yl)propanoic acid]	740	1.5	8.2	3200	4.4
CCOc1ncc(C(CC(=O)O)n2ncc3cc(OCCc4ccc5c(n4)NCCC5)ccc32)cn1 (centres unmarked) [Example 77, 3-(2-Ethoxypyrimidin-5-yl)-3-(5-(2-(5,6,7,8-tetrahydro-1,8-naphthyridin-2-yl)ethoxy)-1H-indazol-1-yl)propanoic acid, TFA]	170	0.39	5.8	5000	2.8
O=C(O)C[C@@H](c1cnc2ccccc2c1)n1cc2ccc(CCC3CCc4cccnc4N3)cc2n1 (stereo partly drawn) [Example 83, (3S)-3-(Quinolin-3-yl)-3-(6-(2-(1,2,3,4-tetrahydro-1,8-naphthyridin-2-yl)ethyl)-2H-indazol-2-yl)propanoic acid]	360	2.2	4.7	5000	4.1
O=C(O)C[C@@H](c1cnc2ccccc2c1)n1cc2ccc(CCCc3ccc4c(n3)NCCC4)cc2n1 [Example 87, (S)-3-(Quinolin-3-yl)-3-(6-(3-(5,6,7,8-tetrahydro-1,8-naphthyridin-2-yl)propyl)-2H-indazol-2-yl)propanoic acid]	10000	3.2	1.3	3300	2.3
O=C(O)CC(c1cnc2nccnc2c1)n1ncc2cc(OCCc3ccc4c(n3)NCCC4)ccc21 (centres unmarked) [Example 95, 3-(Pyrido[2,3-b]pyrazin-7-yl)-3-(5-(2-(5,6,7,8-tetrahydro-1,8-naphthyridin-2-yl)ethoxy)-1H-indazol-1-yl)propanoic acid, 2 TFA]	210		30	7600	2.4
O=C(O)CC(c1cnc2ncccc2c1)n1ncc2cc(OCCc3ccc4c(n3)NCCC4)ccc21 (centres unmarked) [Example 101, 3-(1,8-Naphthyridin-3-yl)-3-(5-(2-(5,6,7,8-tetrahydro-1,8-naphthyridin-2-yl)ethoxy)-1H-indazol-1-yl)propanoic acid, 2 TFA]	100		5.7	2300	1.6
O=C(O)CC(c1cncc(N2CCCC2=O)c1)n1ncc2cc(OCCc3ccc4c(n3)NCCC4)ccc21 (centres unmarked) [Example 102, 3-(5-(2-Oxopyrrolidin-1-yl)pyridin-3-yl)-3-(5-(2-(5,6,7,8-tetrahydro-1,8-naphthyridin-2-yl)ethoxy)-1H-indazol-1-yl)propanoic acid, 2 TFA]	39		4.3	1300	2.2

More lines, now with the values ahead:

IC50 [1] [nM]	IC50 [2] [nM]	IC50 [3] [nM]	IC50 [4] [nM]	IC50 [5] [nM]	Compound
62		15	9300	1.3	O=C(O)CC(c1cnc2c(c1)OCCO2)n1ncc2cc(OCCc3ccc4c(n3)NCCC4)ccc21 (centres unmarked) [Example 109, 3-(2,3-Dihydro-[1,4]dioxino[2,3-b]pyridin-7-yl)-3-(5-(2-(5,6,7,8-tetrahydro-1,8-naphthyridin-2-yl)ethoxy)-1H-indazol-1-yl)propanoic acid, 2 TFA]
93		21	5000	2.9	CNc1ncc(C(CC(=O)O)n2ncc3cc(OCCc4ccc5c(n4)NCCC5)ccc32)cn1 (centres unmarked) [Example 112, 3-(2-(Methylamino)pyrimidin-5-yl)-3-(5-(2-(5,6,7,8-tetrahydro-1,8-naphthyridin-2-yl)ethoxy)-1H-indazol-1-yl)propanoic acid, 2 TFA]
		12			O=C(O)CC(c1cnc2c(c1)CCCN2)n1ncc2cc(OCCc3ccc4c(n3)NCCC4)ccc21 (centres unmarked) [Example 172, 3-(5-(2-(5,6,7,8-Tetrahydro-1,8-naphthyridin-2-yl)ethoxy)-1H-indazol-1-yl)-3-(5,6,7,8-tetrahydro-1,8-naphthyridin-3-yl)propanoic acid]
		370			O=C(O)CCCNc1cncc(C(CC(=O)O)n2ncc3cc(OCCc4ccc5c(n4)NCCC5)ccc32)n1 (centres unmarked) [Example 173, 4-((6-(2-Carboxy-1-(5-(2-(5,6,7,8-tetrahydro-1,8-naphthyridin-2-yl)ethoxy)-1H-indazol-1-yl)ethyl)pyrazin-2-yl)amino)butanoic acid]
		540			COc1ccc(C(CC(=O)O)n2ncc3c(CCc4ccc5c(n4)NCCC5)cccc32)cn1 (centres unmarked) [Example 174, 3-(6-Methoxypyridin-3-yl)-3-(4-(2-(5,6,7,8-tetrahydro-1,8-naphthyridin-2-yl)ethyl)-1H-indazol-1-yl)propanoic acid]
		47			COc1ccc(C(CC(=O)O)n2ncc3cc(OCCc4ccc5c(n4)NCCN5C)ccc32)cn1 (centres unmarked) [Example 179, 3-(6-Methoxypyridin-3-yl)-3-(5-(2-(1-methyl-1,2,3,4-tetrahydropyrido[2,3-b]pyrazin-6-yl)ethoxy)-1H-indazol-1-yl)propanoic acid]
		15			COc1ccc([C@H](CC(=O)O)n2ncc3cc(OCCc4ccc5c(n4)NCCO5)ccc32)cn1 [Example 180, (S)-3-(5-(2-(3,4-dihydro-2H-pyrido[3,2-b][1,4]oxazin-6-yl)ethoxy)-1H-indazol-1-yl)-3-(6-methoxypyridin-3-yl)propanoic acid]
		5000			COc1ccc([C@@H](CC(=O)O)n2ncc3cc(OCCc4ccc5c(n4)NCCO5)ccc32)cn1 [Example 181, (R)-3-(5-(2-(3,4-dihydro-2H-pyrido[3,2-b][1,4]oxazin-6-yl)ethoxy)-1H-indazol-1-yl)-3-(6-methoxypyridin-3-yl)propanoic acid]
